Data on one compound can be found in article PMC10010340, “The Wnt Pathway Inhibitor RXC004 Blocks Tumor Growth and Reverses Immune Evasion in Wnt Ligand–dependent Cancer Models” (Cancer Research Communications, 2022).

The structures appear in SMILES notation. ≈ marks a conversion by molar mass, not a printed value.

One data set in a line: Aqueous solubility. The format is physicochemical. As to conditions: pH 7.4 buffer, 25°C. As for the experimental part:
Following filtration under positive pressure, compound concentration in solution was assessed by high-performance liquid chromatography coupled to an ultraviolet detector (LC-UV).

Data set [1] relates to small intestine of SCID-Beige mice. Nature of the data set: In vivo toxicity in mice, 28 days (small intestine H&E, Ki67, body weight). The arrangement: species or system mouse (SCID-Beige). As for the experimental part:
Groups of 9–10 SCID-Beige mice were dosed at Translational Drug Discovery with vehicle, 1.5 mg/kg or 5 mg/kg RXC004 orally twice daily, or 5 mg/kg RXC004 orally once daily, for 28 days. Formulation: 5% DMSO, 95% hydroxyl propyl beta cyclodextrin (25% w/v). Formalin-fixed, paraffin-embedded (FFPE) samples from the small intestine were assessed by hematoxylin and eosin (H&E) and/or Ki67 staining at Histologix.

The solubility is how much of the substance goes into solution per volume. On to `Cc1c(-c2ccnc(C(F)(F)F)c2)ncn1CC(=O)Nc1ccc(-c2cnccn2)cn1` [RXC004, 2-[5-methyl-4-[2-(trifluoromethyl)-4-pyridyl]imidazol-1-yl]-N-(5-pyrazin-2-yl-2-pyridyl)acetamide], for which the solubility at 24 h in “Aqueous solubility” stood at 56 µM (≈ 24.6 µg/mL). Further, the “Ki67 proliferation marker in intestinal crypts” value is recorded as “no effect on the Ki67 proliferation marker” in data set [1] (1.5 mg/kg twice daily) and “clear decrease” in data set [1] (5 mg/kg twice daily). Besides, the villi architecture result in data set [1] (1.5 mg/kg twice daily) is reported as “No effects”; in data set [1] (5 mg/kg once daily), “No effects”; in data set [1] (5 mg/kg twice daily, only in some animals), “Disruption of villi architecture”. Moreover, the body weight result in data set [1] (5 mg/kg twice daily) is given as “loss of body weight”.
